The target of assay [1] is T1, Serine/threonine-protein kinase B-raf (Homo sapiens, UniProt P15056, V600E). Briefly: Inhibition of recombinant His-tagged BRAF V600E mutant (unknown origin) (444-723 residues) expressed in Escherichia coli BL21(DE3)-RIL using MEKK97R as substrate assessed as reduction in phosphorylation incubated for 20 mins by immunoblot assay. (A western blot detects proteins with antibodies after separation by electrophoresis.)

The subject of the next assay is A-375. As to the kind of experiment: Antiproliferative activity at human A375 cells expressing BRAF V600E mutant assessed as reduction in cell viability incubated for 96 hrs by MTT assay. In kind it is functional, cell-based. The conditions noted are these: A-375, 96 h. In general terms: Tetrazolium assays rely on reduction of a dye to a coloured formazan, in cell work by metabolically active cells.

Assay [2] has as its target Serine/threonine-protein kinase B-raf (Homo sapiens) (UniProt P15056). Briefly: Inhibition of BRAF (unknown origin) at 1 uM relative to control.
In assay [3] the target is RAF proto-oncogene serine/threonine-protein kinase (Homo sapiens) (UniProt P04049). As to the kind of experiment: Inhibition of CRAF (unknown origin) at 1 uM relative to control.
Chain of RAF proto-oncogene serine/threonine-protein kinase (Homo sapiens) (P04049 whole entry): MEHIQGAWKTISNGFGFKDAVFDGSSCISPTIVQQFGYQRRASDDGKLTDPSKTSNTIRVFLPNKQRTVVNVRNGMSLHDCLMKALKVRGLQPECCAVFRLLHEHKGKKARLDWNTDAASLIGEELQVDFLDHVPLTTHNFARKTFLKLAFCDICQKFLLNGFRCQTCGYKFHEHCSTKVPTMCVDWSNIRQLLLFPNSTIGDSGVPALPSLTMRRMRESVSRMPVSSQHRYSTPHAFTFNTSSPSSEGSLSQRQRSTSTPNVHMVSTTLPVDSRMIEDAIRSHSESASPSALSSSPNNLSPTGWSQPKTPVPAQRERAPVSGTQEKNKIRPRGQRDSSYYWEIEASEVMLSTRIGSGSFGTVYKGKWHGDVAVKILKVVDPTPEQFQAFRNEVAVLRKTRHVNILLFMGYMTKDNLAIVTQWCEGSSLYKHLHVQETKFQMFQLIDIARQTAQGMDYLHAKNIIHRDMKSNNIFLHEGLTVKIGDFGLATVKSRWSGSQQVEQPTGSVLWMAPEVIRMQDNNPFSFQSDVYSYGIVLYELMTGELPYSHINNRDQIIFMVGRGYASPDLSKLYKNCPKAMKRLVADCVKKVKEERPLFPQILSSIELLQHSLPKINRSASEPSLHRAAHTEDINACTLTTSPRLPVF
In assay [4] the target is Protein-tyrosine kinase 6 (Homo sapiens) (UniProt Q13882). As to the kind of experiment: Inhibition of BRK (unknown origin) at 1 uM relative to control.
Chain of Protein-tyrosine kinase 6 (Homo sapiens) (Q13882 whole entry, looked up): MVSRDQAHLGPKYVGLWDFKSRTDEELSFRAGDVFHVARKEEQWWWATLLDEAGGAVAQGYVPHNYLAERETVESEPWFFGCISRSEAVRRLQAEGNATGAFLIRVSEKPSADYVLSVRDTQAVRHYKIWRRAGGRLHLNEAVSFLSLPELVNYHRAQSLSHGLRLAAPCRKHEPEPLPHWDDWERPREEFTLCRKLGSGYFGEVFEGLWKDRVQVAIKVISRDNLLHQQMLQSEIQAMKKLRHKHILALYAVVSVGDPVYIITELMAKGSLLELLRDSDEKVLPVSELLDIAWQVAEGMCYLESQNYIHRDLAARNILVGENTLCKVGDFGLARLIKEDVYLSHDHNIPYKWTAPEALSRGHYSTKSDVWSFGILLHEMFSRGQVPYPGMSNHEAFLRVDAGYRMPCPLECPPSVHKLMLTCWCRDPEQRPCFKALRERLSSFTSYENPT
Assay [5] addresses Macrophage colony-stimulating factor 1 receptor (Homo sapiens) (UniProt P07333). As to the kind of experiment: Inhibition of FMS (unknown origin) at 1 uM relative to control.
The target in assay [6] is T1, Serine/threonine-protein kinase B-raf. Briefly: Inhibition of BRAF V600E in human A375 cells assessed as reduction in ERK phosphorylation incubated for 1 hr by immunoblot analysis. In kind it is cell-based.
Another assay concerns Malme-3M. Briefly: Growth inhibition of human MALME-3M cells harboring BRAF V600E mutant incubated for 48 hrs by sulforhodamine B assay. In kind it is functional. (The SRB assay estimates cell density from bound dye.)
The next assay relates to MDA-MB-435. Briefly: Growth inhibition of human MDA-MB-435 cells harboring BRAF V600E mutant incubated for 48 hrs by sulforhodamine B assay. In kind it is functional.
The next assay has as its system SK-MEL-5. As to the kind of experiment: Growth inhibition of human SK-MEL-5 cells harboring BRAF V600E mutant incubated for 48 hrs by sulforhodamine B assay. In kind it is functional.
The subject of assay [7] is Serine/threonine-protein kinase B-raf (Homo sapiens), P15056 [V600E]. As to the kind of experiment: Potency index, ratio vemurafenib IC50 to test compound IC50 for Inhibition of recombinant His-tagged BRAF V600E mutant (unknown origin) (444 to 723 residues) expressed in Escherichia coli BL21(DE3)-RIL.

Each structure is given as a SMILES string.

The IC50 is the concentration that inhibits the measured activity by half. Broadly, the inhibition is the relative decrease from the control value, in per cent. High values mean strong suppression, low ones little suppression.

Chain of Serine/threonine-protein kinase B-raf (Homo sapiens) (P15056 whole entry): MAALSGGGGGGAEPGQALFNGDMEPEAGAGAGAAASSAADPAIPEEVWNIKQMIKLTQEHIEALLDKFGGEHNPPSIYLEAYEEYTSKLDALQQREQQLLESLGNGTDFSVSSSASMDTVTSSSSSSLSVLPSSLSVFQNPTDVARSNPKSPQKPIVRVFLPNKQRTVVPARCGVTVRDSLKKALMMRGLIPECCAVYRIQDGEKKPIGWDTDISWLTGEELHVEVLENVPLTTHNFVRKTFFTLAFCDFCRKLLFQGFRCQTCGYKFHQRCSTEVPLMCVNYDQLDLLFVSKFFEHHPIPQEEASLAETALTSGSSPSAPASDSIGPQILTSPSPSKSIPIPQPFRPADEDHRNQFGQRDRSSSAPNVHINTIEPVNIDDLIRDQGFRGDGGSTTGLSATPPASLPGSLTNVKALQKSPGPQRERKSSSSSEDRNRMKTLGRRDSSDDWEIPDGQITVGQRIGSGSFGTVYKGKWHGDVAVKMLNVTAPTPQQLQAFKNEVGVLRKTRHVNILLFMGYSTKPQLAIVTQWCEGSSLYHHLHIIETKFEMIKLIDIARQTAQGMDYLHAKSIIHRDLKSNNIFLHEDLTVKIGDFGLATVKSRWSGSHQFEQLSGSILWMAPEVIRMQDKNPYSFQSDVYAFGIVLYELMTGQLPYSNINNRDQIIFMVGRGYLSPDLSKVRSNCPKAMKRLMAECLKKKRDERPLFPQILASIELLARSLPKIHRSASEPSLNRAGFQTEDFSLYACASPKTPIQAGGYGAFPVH
T1 sequence (P15056 2-766 V600E limits assumed): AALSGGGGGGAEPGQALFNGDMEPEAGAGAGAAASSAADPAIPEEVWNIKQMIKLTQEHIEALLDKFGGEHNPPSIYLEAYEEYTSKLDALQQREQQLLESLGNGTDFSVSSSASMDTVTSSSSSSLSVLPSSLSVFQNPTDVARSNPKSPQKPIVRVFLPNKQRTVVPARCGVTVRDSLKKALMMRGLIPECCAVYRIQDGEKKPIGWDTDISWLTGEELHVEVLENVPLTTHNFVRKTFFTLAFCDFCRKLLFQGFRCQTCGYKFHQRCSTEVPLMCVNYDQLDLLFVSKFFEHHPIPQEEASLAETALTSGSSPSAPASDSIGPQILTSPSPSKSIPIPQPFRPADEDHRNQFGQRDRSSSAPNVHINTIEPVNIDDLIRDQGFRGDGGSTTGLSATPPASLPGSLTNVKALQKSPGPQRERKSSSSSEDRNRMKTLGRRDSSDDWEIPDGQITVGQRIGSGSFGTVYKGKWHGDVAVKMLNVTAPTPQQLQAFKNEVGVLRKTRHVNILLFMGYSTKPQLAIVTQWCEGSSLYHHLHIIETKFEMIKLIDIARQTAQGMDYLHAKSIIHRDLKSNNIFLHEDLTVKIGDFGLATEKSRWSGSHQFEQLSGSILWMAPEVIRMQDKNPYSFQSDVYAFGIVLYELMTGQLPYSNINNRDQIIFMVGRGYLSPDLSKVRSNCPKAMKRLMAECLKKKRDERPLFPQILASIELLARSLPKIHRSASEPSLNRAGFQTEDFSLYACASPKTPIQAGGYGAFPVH
Chain of Serine/threonine-protein kinase B-raf (Homo sapiens), P15056 [V600E] (P15056 whole entry V600E, the tested form may be a part): as the sequence (P15056 whole entry) above, with V600E counted along it
Chain of Macrophage colony-stimulating factor 1 receptor (Homo sapiens) (P07333 whole entry): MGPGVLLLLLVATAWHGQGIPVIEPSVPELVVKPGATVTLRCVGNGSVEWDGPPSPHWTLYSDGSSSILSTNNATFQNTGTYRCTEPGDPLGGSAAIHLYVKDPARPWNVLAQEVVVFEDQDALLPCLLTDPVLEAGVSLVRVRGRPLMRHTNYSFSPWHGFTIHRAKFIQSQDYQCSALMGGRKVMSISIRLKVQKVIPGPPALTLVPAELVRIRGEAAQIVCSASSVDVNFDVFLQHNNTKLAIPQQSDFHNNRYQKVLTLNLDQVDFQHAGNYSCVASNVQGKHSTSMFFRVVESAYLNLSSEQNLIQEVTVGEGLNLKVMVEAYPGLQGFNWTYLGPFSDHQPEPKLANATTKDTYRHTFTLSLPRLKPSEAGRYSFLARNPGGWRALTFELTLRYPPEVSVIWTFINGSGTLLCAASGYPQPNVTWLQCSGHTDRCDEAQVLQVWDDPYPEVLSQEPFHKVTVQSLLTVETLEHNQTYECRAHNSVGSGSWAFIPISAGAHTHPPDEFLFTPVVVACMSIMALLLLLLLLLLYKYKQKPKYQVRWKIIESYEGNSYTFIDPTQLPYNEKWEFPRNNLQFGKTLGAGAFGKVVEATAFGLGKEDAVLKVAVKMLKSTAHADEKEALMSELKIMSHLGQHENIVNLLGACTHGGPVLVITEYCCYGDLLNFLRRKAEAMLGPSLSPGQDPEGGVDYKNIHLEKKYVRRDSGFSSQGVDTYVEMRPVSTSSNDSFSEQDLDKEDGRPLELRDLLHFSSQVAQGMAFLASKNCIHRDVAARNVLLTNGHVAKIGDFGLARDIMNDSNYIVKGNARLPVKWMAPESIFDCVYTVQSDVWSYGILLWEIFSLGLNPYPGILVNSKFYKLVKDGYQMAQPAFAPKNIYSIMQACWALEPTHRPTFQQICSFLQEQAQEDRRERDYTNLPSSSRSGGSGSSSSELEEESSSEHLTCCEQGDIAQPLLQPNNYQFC

`CCCn1nc(C#Cc2cccc3c(Nc4cccc(C(F)(F)F)c4)nccc23)c2c(N)ncnc21`: in assay [1], the IC50 was over 300 nM.

For the molecule `CCn1nc(C#Cc2cccc3c(Nc4cccc(C(F)(F)F)c4)nccc23)c2c(N)ncnc21`, the IC50 in assay [1] is 41 nM; in the assay on A-375, over 10000 nM.

`CC(C)n1nc(C#Cc2cccc3c(Nc4cccc(C(F)(F)F)c4)nccc23)c2c(N)ncnc21`: the results for the IC50 (in assay [1]; in the assay on A-375) were 140 nM and over 10000 nM, respectively. Further, the inhibition in assay [2] and in [3] was over 85% each time.

With `CC(C)n1nc(C#Cc2cccc3c(Nc4ccc(Cl)c(C(F)(F)F)c4)nccc23)c2c(N)ncnc21`, the IC50 in assay [1] is over 300 nM.

As for `CCCS(=O)(=O)Nc1ccc(F)c(C(=O)c2c[nH]c3ncc(-c4ccc(Cl)cc4)cc23)c1F`, the inhibition in [2] and in [3] was over 85% each time.

For `CC(C)n1nc(C#Cc2cccc3c(Nc4cccc(C(F)(F)F)c4)cccc23)c2c(N)ncnc21`, in assay [1], the 50% inhibitory concentration (IC50) is over 300 nM.

As to `CC(C)n1nc(C#Cc2cccc3c(Nc4ccc(Cl)cc4)nccc23)c2c(N)ncnc21`, the figures for the IC50 (in assay [1]; with A-375) were 29 nM and over 10000 nM, respectively.

As for `CC(C)n1nc(C#Cc2cccc3c(Oc4cccc(C(F)(F)F)c4)nccc23)c2c(N)ncnc21`, the IC50 in assay [1] is over 300 nM.

Turning to `Cc1ccc(Nc2nccc3c(C#Cc4nn(C(C)C)c5ncnc(N)c45)cccc23)cc1C(F)(F)F`, the IC50 in assay [1] is over 300 nM.

As to `CC(C)n1nc(C#Cc2cccc3c(Nc4cccc(C(F)(F)F)c4)ncnc23)c2c(N)ncnc21`, the IC50 in assay [1] is over 300 nM.

Consider `Cc1ccc2c(Nc3cccc(C(F)(F)F)c3)nccc2c1C#Cc1nn(C(C)C)c2ncnc(N)c12`, for which the values for the IC50 (in [1]; in the assay with A-375) were 21 nM and 869 nM, respectively.

Consider `Cc1cn(-c2cc(Nc3nccc4c(C#Cc5nn(C(C)C)c6ncnc(N)c56)cccc34)cc(C(F)(F)F)c2)cn1`, for which the IC50 in [1] was over 300 nM.

Consider `CCn1nc(C#Cc2c(C)ccc3c(Nc4ccc(Cl)cc4)nccc23)c2c(N)ncnc21`, for which the results for the IC50 (in assay [1]; in the assay on A-375; in assay [6]) were 8 nM, 417 nM and 420 nM, respectively. Also, the inhibition in assay [2], in assay [3], in assay [4] and in assay [5] was over 85% each time. Besides, the Activity result in the assay with Malme-3M, in the assay on MDA-MB-435 and in the assay on SK-MEL-5 was “Dose-dependent effect” each time. The GI in the assay on Malme-3M is 7.1 µM; in the assay on MDA-MB-435, 4.6 µM; in the assay on SK-MEL-5, 6.6 µM. For the same molecule, the Ratio IC50 in assay [7] came out at 2.
